Measured values taken from the supplement of paper PMC10307832.

compound: Cc1ccc(C(=O)Nc2ccc(CN3CCN(C)CC3)c(C(F)(F)F)c2)cc1C#Cc1cnc2cccnn12 [Ponatinib] + N=C(N)NC(=N)NCCc1ccccc1 [Phenformin] (partner 250 µM); assay: relative viability (nuclei count vs DMSO), 5 days (fraction); higher = more cells survive; conditions: first compound 0.002 µM
How it was run: (§1)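 Five library-drug doses in √10 steps were combined with a fixed anchor-drug dose, or a single drug was given alone, by pin tool to lung cancer cell lines in 1536-well plates the day after seeding. Nuclei were stained and counted after 5 days. Relative viability is the nuclei count in treated wells over that in vehicle wells, taken as the median of duplicate plates.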

| Cell Line | relative viability |
| --- | --- |
| NCI-H1792 | 0.268 |
| NCI-H1355 | 0.44 |
| NCI-H322M | 0.746 |
| NCI-H1437 | 0.293 |
| NCI-H1755 | 0.561 |
| NCI-H2023 | 0.397 |
| HCC-15 | 0.445 |
| NCI-H1944 | 0.204 |
| PC-3 [JPC-3] | 0.461 |
| EKVX | 0.231 |
| LC-2-ad | 0.415 |
| NCI-H2170 | 0.391 |
| NCI-H1975 | 0.365 |
| SK-LU-1 | 0.445 |
| ABC-1 | 0.215 |
| SK-MES-1 | 0.676 |
| NCI-H661 | 0.277 |
| RERF-LC-KJ | 0.41 |

same assay, conditions: first compound 0.006325 µM

| Cell Line | relative viability |
| --- | --- |
| NCI-H1792 | 0.22 |
| NCI-H1355 | 0.467 |
| NCI-H322M | 0.734 |
| NCI-H1437 | 0.334 |
| NCI-H1755 | 0.599 |
| NCI-H2023 | 0.416 |
| HCC-15 | 0.494 |
| NCI-H1944 | 0.202 |
| PC-3 [JPC-3] | 0.502 |
| EKVX | 0.25 |
| LC-2-ad | 0.542 |
| NCI-H2170 | 0.365 |
| NCI-H1975 | 0.395 |
| SK-LU-1 | 0.469 |
| ABC-1 | 0.23 |
| SK-MES-1 | 0.65 |
| NCI-H661 | 0.258 |
| RERF-LC-KJ | 0.417 |

same assay, conditions: first compound 0.06325 µM

| Cell Line | relative viability |
| --- | --- |
| NCI-H1792 | 0.354 |
| NCI-H1355 | 0.491 |
| NCI-H322M | 0.799 |
| NCI-H1437 | 0.322 |
| NCI-H1755 | 0.614 |
| NCI-H2023 | 0.425 |
| HCC-15 | 0.547 |
| NCI-H1944 | 0.209 |
| PC-3 [JPC-3] | 0.502 |
| EKVX | 0.234 |
| LC-2-ad | 0.498 |
| NCI-H2170 | 0.432 |
| NCI-H1975 | 0.439 |
| SK-LU-1 | 0.475 |
| ABC-1 | 0.224 |
| SK-MES-1 | 0.716 |
| NCI-H661 | 0.278 |
| RERF-LC-KJ | 0.482 |

same assay, conditions: first compound 0.2 µM

| Cell Line | relative viability |
| --- | --- |
| NCI-H1792 | 0.205 |
| NCI-H1355 | 0.452 |
| NCI-H322M | 0.728 |
| NCI-H1437 | 0.302 |
| NCI-H1755 | 0.565 |
| NCI-H2023 | 0.315 |
| HCC-15 | 0.467 |
| NCI-H1944 | 0.186 |
| PC-3 [JPC-3] | 0.477 |
| EKVX | 0.249 |
| LC-2-ad | 0.462 |
| NCI-H2170 | 0.419 |
| NCI-H1975 | 0.398 |
| SK-LU-1 | 0.328 |
| ABC-1 | 0.263 |
| SK-MES-1 | 0.548 |
| NCI-H661 | 0.264 |
| RERF-LC-KJ | 0.426 |

compound: Cc1ccc(Nc2nccc(N(C)c3ccc4c(C)n(C)nc4c3)n2)cc1S(N)(=O)=O [Pazopanib] + N=C(N)NC(=N)NCCc1ccccc1 [Phenformin] (partner 250 µM); assay: as above; conditions: first compound 0.01 µM
How it was run: as §1

| Cell Line | relative viability |
| --- | --- |
| NCI-H1355 | 0.42 |
| NCI-H322M | 0.844 |
| NCI-H1437 | 0.355 |
| NCI-H1755 | 0.552 |
| NCI-H2023 | 0.421 |
| HCC-15 | 0.476 |
| PC-3 [JPC-3] | 0.52 |
| EKVX | 0.227 |
| LC-2-ad | 0.618 |
| NCI-H2170 | 0.507 |
| NCI-H1975 | 0.399 |
| SK-LU-1 | 0.505 |
| ABC-1 | 0.23 |
| SK-MES-1 | 0.734 |
| NCI-H661 | 0.275 |
| RERF-LC-KJ | 0.445 |

same assay, conditions: first compound 0.03162 µM

| Cell Line | relative viability |
| --- | --- |
| NCI-H1792 | 0.308 |
| NCI-H1355 | 0.481 |
| NCI-H322M | 0.866 |
| NCI-H1437 | 0.312 |
| NCI-H1755 | 0.636 |
| NCI-H2023 | 0.43 |
| HCC-15 | 0.507 |
| NCI-H1944 | 0.191 |
| PC-3 [JPC-3] | 0.465 |
| EKVX | 0.224 |
| LC-2-ad | 0.649 |
| NCI-H2170 | 0.406 |
| NCI-H1975 | 0.437 |
| SK-LU-1 | 0.627 |
| ABC-1 | 0.242 |
| SK-MES-1 | 0.661 |
| NCI-H661 | 0.281 |
| RERF-LC-KJ | 0.419 |

same assay, conditions: first compound 0.1 µM

| Cell Line | relative viability |
| --- | --- |
| NCI-H1355 | 0.406 |
| NCI-H322M | 0.779 |
| NCI-H1437 | 0.34 |
| NCI-H1755 | 0.673 |
| NCI-H2023 | 0.398 |
| HCC-15 | 0.498 |
| NCI-H1944 | 0.218 |
| PC-3 [JPC-3] | 0.513 |
| EKVX | 0.207 |
| LC-2-ad | 0.584 |
| NCI-H2170 | 0.393 |
| NCI-H1975 | 0.445 |
| SK-LU-1 | 0.537 |
| SK-MES-1 | 0.668 |
| NCI-H661 | 0.255 |
| RERF-LC-KJ | 0.43 |

same assay, conditions: first compound 0.3162 µM

| Cell Line | relative viability |
| --- | --- |
| NCI-H1792 | 0.348 |
| NCI-H1355 | 0.455 |
| NCI-H322M | 0.854 |
| NCI-H1437 | 0.303 |
| NCI-H1755 | 0.65 |
| NCI-H2023 | 0.444 |
| HCC-15 | 0.519 |
| NCI-H1944 | 0.227 |
| PC-3 [JPC-3] | 0.472 |
| EKVX | 0.225 |
| LC-2-ad | 0.689 |
| NCI-H2170 | 0.423 |
| NCI-H1975 | 0.471 |
| SK-LU-1 | 0.571 |
| ABC-1 | 0.196 |
| SK-MES-1 | 0.669 |
| NCI-H661 | 0.272 |
| RERF-LC-KJ | 0.417 |

same assay, conditions: first compound 1 µM

| Cell Line | relative viability |
| --- | --- |
| NCI-H1792 | 0.31 |
| NCI-H1355 | 0.461 |
| NCI-H322M | 0.791 |
| NCI-H1437 | 0.338 |
| NCI-H1755 | 0.671 |
| NCI-H2023 | 0.434 |
| HCC-15 | 0.505 |
| NCI-H1944 | 0.228 |
| PC-3 [JPC-3] | 0.478 |
| EKVX | 0.234 |
